Measurements taken from patent US20250009737A1, “COMPOUNDS AND METHODS FOR THE TARGETED DEGRADATION OF ANDROGEN RECEPTOR” (Arvinas Operations, Inc., priority 2023, published 2025).

Legend:
Assay type in all cases: in vitro ADME
[1] = Metabolite profiling / stability in human liver microsomes
Experimental: Metabolite profiling was conducted in incubations of Compound A (2 and 10 μM) with HLM (up to 60 min), human hepatocyte suspension (up to 240 min) and human plasma (up to 360 min). In addition, Compound A (2 μM) was incubated with recombinant human CYP enzymes CYP1A2, CYP2A6, CYP2B6, CYP2C8, CYP2C9, CYP2C19, CYP2D6, CYP2E1, CYP3A4 and CYP3A5.
The DDI potential of Compound A as a victim via CYP mediated pathways was examined in HLM, human hepatocyte suspensions, and human recombinant CYP enzymes.

OATP1B1 = molecular target: T1, OATP1B1 (Homo sapiens, UniProt Q9Y6L6); assay: OATP1B1 uptake transporter substrate assay; set-up: expressed in transfected cells; conditions: OATP1B1-expressing vs control cell
T1 sequence (Q9Y6L6 1-691): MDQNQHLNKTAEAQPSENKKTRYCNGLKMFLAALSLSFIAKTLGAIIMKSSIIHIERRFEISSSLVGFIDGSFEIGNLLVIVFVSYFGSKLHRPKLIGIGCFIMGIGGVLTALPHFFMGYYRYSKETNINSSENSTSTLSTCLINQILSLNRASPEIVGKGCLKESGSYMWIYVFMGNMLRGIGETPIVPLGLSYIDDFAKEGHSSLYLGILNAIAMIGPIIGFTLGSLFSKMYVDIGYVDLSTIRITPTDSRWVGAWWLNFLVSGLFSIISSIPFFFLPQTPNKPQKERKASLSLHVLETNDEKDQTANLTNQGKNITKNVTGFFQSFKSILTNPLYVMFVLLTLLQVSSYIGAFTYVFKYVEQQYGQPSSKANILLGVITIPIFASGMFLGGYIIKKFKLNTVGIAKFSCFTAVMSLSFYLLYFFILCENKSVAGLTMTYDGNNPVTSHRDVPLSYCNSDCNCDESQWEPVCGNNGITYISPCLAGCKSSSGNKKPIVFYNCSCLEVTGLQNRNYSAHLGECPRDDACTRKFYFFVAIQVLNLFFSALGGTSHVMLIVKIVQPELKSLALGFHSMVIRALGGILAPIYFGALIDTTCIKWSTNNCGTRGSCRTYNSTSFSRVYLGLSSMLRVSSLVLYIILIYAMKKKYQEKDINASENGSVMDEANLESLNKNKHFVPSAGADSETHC
Experimental: The potential of Compound A to act as an efflux transporter Pgp and BCRP as well as uptake transporter OATP1B1 and 1B3 were assessed in Caco-2 and single transporter over-expressed HEK29 cells, respectively.
The potential of Compound A to act as a substrate for Pgp and BCRP was examined in Caco-2 cells at the concentrations of 0.075, 0.75, 3.75 and 7.5 μM containing 1% of BSA. After 120 min incubation, the bidirectional permeability of Compound A was determined by LC-MS/MS. The involvement of Compound A as a substrate of OATP1B1 and OATP1B3 was assessed in the uptake transporter substrate assays at 4 concentrations (0.1, 0.5, 1 and 5 μM). Compound A in cell lysates was determined by LC-MS/MS.

OATP1B3 = molecular target: T2, OATP1B3 (Homo sapiens, UniProt Q9NPD5); assay: OATP1B3 uptake transporter inhibition in MDCKII or HEK293 cells; set-up: expressed in transfected cells; host or cells: MDCKII or HEK293; conditions: substrate Rosuvastatin (1 μM)
T2 sequence (Q9NPD5 1-702): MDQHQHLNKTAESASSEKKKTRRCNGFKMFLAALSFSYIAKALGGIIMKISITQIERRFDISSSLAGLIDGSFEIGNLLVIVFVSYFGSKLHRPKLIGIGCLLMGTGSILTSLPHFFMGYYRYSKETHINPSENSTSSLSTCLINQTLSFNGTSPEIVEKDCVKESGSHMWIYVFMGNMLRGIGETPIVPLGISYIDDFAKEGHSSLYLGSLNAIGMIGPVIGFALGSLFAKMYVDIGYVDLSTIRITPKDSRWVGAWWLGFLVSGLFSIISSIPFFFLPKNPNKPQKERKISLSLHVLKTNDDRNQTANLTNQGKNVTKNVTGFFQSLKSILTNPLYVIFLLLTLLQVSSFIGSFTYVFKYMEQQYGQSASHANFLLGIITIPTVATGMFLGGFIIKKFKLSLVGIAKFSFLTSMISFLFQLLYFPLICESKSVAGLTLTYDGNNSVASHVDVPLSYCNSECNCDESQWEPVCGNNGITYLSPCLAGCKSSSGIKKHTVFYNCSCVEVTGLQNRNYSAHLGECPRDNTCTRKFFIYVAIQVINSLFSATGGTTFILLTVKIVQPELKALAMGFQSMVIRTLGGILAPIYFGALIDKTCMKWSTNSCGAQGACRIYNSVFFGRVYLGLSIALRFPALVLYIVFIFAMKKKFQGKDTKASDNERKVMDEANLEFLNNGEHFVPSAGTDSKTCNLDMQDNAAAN
Experimental: In addition, the inhibition potential against efflux transporters (P-glycoprotein (Pgp) and breast cancer resistance protein (BCRP)) and uptake transporters (MATE1, MATE2-K, OATP1B1, OATP1B3, OAT1, OAT3, and OCT2) was assessed using single transporter over-expressed cell monolayers (MDCK II or HEK293) or inside-out vesicles.
The potential of Compound A to inhibit Pgp or BCRP was tested for bidirectional transport of the probe substrates in Pgp or BCRP-expressed MDCKII and control monolayers at Compound A concentrations of 0.07-5 μM. Pgp and BCR inhibition were tested in inside-out membrane vesicles prepared from HEK293 overexpressing human Pgp and BCR at concentrations of 0.01-9 μM Compound A in the presence of 4 mM MgATP or MgAMP.

CYP2C19 mRNA = CYP2C19 mRNA induction in cryopreserved human hepatocytes; conditions: 48 hours

% Parent at 0 Min, HLM at 60 min ([1]; human liver microsomes, 60 min): 92.6%
Stability in HLM incubations ([1]; up to 60 min at 2 μM): relatively stable
Fold accumulation, OATP1B1 (OATP1B1): < 2 fold
Substrate for OATP1B1 (OATP1B1; 0.1, 0.5, 1 and 5 μM): not a substrate
IC50 (OATP1B3): > 3.75 µM
CYP2C19 mRNA Fold induction (CYP2C19 mRNA; Donor 1, 0.03-30 μM): <2 Fold
CYP2C19 mRNA Fold induction (CYP2C19 mRNA; Donor 2, 0.03-30 μM): <2 Fold
CYP2C19 mRNA Fold induction (CYP2C19 mRNA; Donor 3, 0.03-30 μM): <2 Fold
SMILES: COc1cc(O[C@H]2C(C)(C)[C@H](NC(=O)c3ccc(N4CCC(CN5CCN(c6ccc(C(=O)N[C@H]7CCC(=O)NC7=O)c(F)c6)CC5)CC4)cc3)C2(C)C)ccc1C#N [Compound A, 4-(4-((1-(4-(((1R,3R)-3-(4-cyano-3-methoxyphenoxy)-2,2,4,4-tetramethylcyclobutyl)carbamoyl)phenyl)piperidin-4-yl)methyl)piperazin-1-yl)-N—((S)-2,6-dioxopiperidin-3-yl)-2-fluorobenzamide]
